Data reported in US11578055B2, “Triazacyclododecansulfonamide (“TCD”)-based protein secretion inhibitors” (KEZAR LIFE SCIENCES, priority 2018, dated 2023).

How the values were obtained:
[1] = tested on: IL-1β; assay: Human PBMC Cytokine Assay: IL-1β; assay type: cell-based; settings: LPS stimulation, 24 hours
Protocol: (§1) Human PBMC were freshly isolated from whole blood collections of 3 normal donors utilizing density gradient centrifugation followed by red blood cell lysis. PBMC from each donor were assayed separately. Cells were suspended in RPMI 1640 media supplemented with 5% fetal bovine serum, 2 mM L-glutamine, 10 mM HEPES, and 1× penicillin/streptomycin. PBMC were seeded at 200,000 cells/well in 96-well round-bottom plates either without stimulation or with stimulation by lipopolysaccharide (LPS, 1 μg/mL) or antibodies against human CD3 (plate-bound, 2 μg/mL) and human CD28 (soluble, 2 μg/mL). Serial dilutions of compound in DMSO/media were simultaneously added and PBMC were incubated at 37° C., 5% CO2 for 24 hours. After 24 hours, plates were centrifuged and half of the supernatant volume removed for cytokine analysis by electrochemiluminescent immunoassay (U-PLEX® Biomarker Multiplex, Meso Scale Discovery). For viability analysis, CellTiter-Glo® (Promega) was added to the remaining material in each well and quantified via luminescent plate reader.

[2] = tested on: Human PBMC; assay: Human PBMC CellTiter-Glo viability; assay type: cell-based; settings: no stimulation, 24 hours
Protocol: as §1

[3] = tested on: GM-CSF; assay: Human PBMC Cytokine Assay: GM-CSF; assay type: cell-based; settings: anti-CD3/CD28 stimulation, 24 hours
Protocol: as §1

[4] = tested on: multiple myeloma cell line NCl-H929; assay: H929 Cell Viability Assay; assay type: cell-based, human; settings: Homo sapiens, NCI-H929, 48 h, H929, Celltiter-Glo
Method in brief: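 Viability was determined by CellTiter-Glo luminescence after a 48 h, 37 °C exposure of NCI-H929 cells to serial compound dilutions in medium containing 10% FBS. Where stereochemistry is not shown, values refer to a mix of stereoisomers.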

[5] = tested on: TNFα; assay: Human PBMC Cytokine Assay: TNFα; assay type: cell-based; settings: anti-CD3/CD28 stimulation, 24 hours
Protocol: as §1

[6] = tested on: PD1 signal sequence plus 10 amino acids fused to Gaussia Luciferase (PD1-ss+10aa/Gaussia Luciferase); assay: Dox Induced PD1-ss-Gluc Assay; assay type: cell-based; settings: 24 hr, Dox inducible, 293FRT/TO cells; read-out: 24 hr Dox Inducible PD1ssGluc 293FRT/TO: Mean IC50
Method in brief: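 Compound dilutions in DMSO/media containing doxycycline were applied to a stable, inducible 293 T-REx line carrying the luciferase fusion, then incubated at 37 °C, 5% CO2. Where stereochemistry is not drawn, values relate to isomer mixtures.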

[7] = tested on: IL-23; assay: Human PBMC Cytokine Assay: IL-23; assay type: cell-based; settings: LPS stimulation, 24 hours
Protocol: as §1

[8] = tested on: multiple myeloma cell line U266B1; assay: U266 Cell Viability Assay; assay type: cell-based, human; settings: Homo sapiens, U-266; 48 hr, U266, Celltiter-Glo
Method in brief: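 Viability was measured by CellTiter-Glo luminescence after 48 h compound exposure at 37° C, 5% CO2. The cells were U266B1 multiple myeloma cells grown in RPMI 1640 plus 10% FBS. Where stereochemistry is not shown, values apply to the stereoisomer mixture.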

[9] = In Vitro Microsome Stability Assay (mouse); assay type: in vitro ADME; settings: mouse liver microsomes, 30 min w/ NADPH
Method in brief: (§2)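 The value reported is the percentage of parent left after 30 min, calculated from analyte/IS peak-area ratios relative to time zero by LC-MS/MS. Incubations ran at 37° C in 0.1 M potassium phosphate with NADPH and microsomes (stock 20 mg/mL), with compound added from a 0.25 mM DMSO stock. Acetonitrile containing IS stopped the reactions.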

[10] = In Vitro Microsome Stability Assay (human); assay type: in vitro ADME; settings: human liver microsomes, 30 min w/ NADPH
Method in brief: as §2

[11] = tested on: full length IL-2 (amino acids 1-153) fused to Gaussia Luciferase; assay: Dox Induced IL2-FL-Gluc Assay; assay type: cell-based; settings: 24 hr, Dox inducible, 293FRT/TO cells; read-out: 24 hr Dox Inducible IL2FLGluc 293FRT/TO: Mean IC50
Method in brief: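 Compounds in DMSO/media with doxycycline were added to cells plated the previous day and incubated at 37° C, 5% CO2. Cells: stable Flp-In 293 T-REx line, Dox-regulated expression of IL-2 (aa 1-153) fused at its C-terminus to Gaussia luciferase.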

[12] = tested on: IFNγ; assay: Human PBMC Cytokine Assay: IFNγ; assay type: cell-based; settings: anti-CD3/CD28 stimulation, 24 hours
Protocol: as §1

[13] = tested on: IL-6; assay: Human PBMC Cytokine Assay: IL-6; assay type: cell-based; settings: LPS stimulation, 24 hours
Protocol: as §1

[14] = tested on: full length TNFα (amino acids 1-233) fused to Gaussia Luciferase; assay: Dox Induced TNFα-FL-Gluc Assay; assay type: cell-based; settings: 24 hr, Dox inducible, 293FRT/TO cells; read-out: 24 hr Dox Inducible TNFaFLGluc 293FRT/TO: Mean IC50
Method in brief: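 Compounds diluted in DMSO/medium with doxycycline were incubated at 37° C, 5% CO2 with 293 T-REx cells stably carrying a Tet-regulated TNFα(1-233)-Gaussia luciferase construct. Data for structures drawn without stereochemistry refer to stereoisomer mixtures.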

[15] = In Vitro Microsome Stability Assay (rat); assay type: in vitro ADME; settings: rat liver microsomes, 30 min w/ NADPH
Method in brief: as §2

[16] = tested on: IL-2; assay: Human PBMC Cytokine Assay: IL-2; assay type: cell-based; settings: anti-CD3/CD28 stimulation, 24 hours
Protocol: as §1

[17] = In Vitro Microsome Stability Assay (monkey); assay type: in vitro ADME; settings: monkey liver microsomes, 30 min w/ NADPH
Method in brief: as §2

Cc1ccccc1CN1CCCN(S(=O)(=O)c2ccc(N(C)C)cc2)C[C@H](C)CN(S(=O)(=O)N2CCc3cc(Cl)ccc3C2)CCC1 [A133, 4-{[(3S)-5-[(6-chloro-1,2,3,4-tetrahydroisoquinolin-2-yl)sulfonyl]-3-methyl-9-[(2-methylphenyl)methyl]-1,5,9-triazacyclododecan-1-yl]sulfonyl}-N,N-dimethylaniline]
IC50 [1]: > 25000 nM
IC50 [2]: > 25000 nM
IC50 [3]: 404 nM
EC50 [4]: 5120 nM
IC50 [5]: 216 nM
IC50 [6]: 36.8 nM
IC50 [7]: 1050 nM
EC50 [8]: > 25000 nM
Liver Microsome Stability-% Left after 30 min w/ NADPH (%) Mouse [9]: 82.2%
Liver Microsome Stability-% Left after 30 min w/ NADPH (%) Human [10]: 71.3%
IC50 [11]: 135 nM
IC50 [12]: 234 nM
IC50 [13]: 193 nM
IC50 [14]: 749 nM
Liver Microsome Stability-% Left after 30 min w/ NADPH (%) Rat [15]: 87.3%
IC50 [16]: 197 nM
Liver Microsome Stability-% Left after 30 min w/ NADPH (%) Monkey [17]: 67.3%
